These results are taken from patent US8574563B2 (Bristol-Myers Squibb Company, priority 2006, dated 2013).

The test concerns HCV 1b-377-neo replicon cells. Kind of test: HCV replicon assay, HCV 1b-377-neo replicon cells (1b FRET). The class given is cell-based, Hepatitis C virus genotype 1b. The note with it: HCV 1b-377-neo replicon cells, HCV 1b genotype, read-out: EC50 range against HCV 1b (Table 2, Range). An outline of the steps:
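Compounds were tested in genotype 1b subgenomic replicon cells carrying a neomycin marker, alongside a matched replicon line with an NS5A Y2065H substitution that confers resistance to a reference NS5A inhibitor.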

Each structure is given as a SMILES string. Read-outs that look alike come from different tables or passages of the source.

Regarding `O=C([C@@H]1CCCO1)N1CCC[C@H]1c1ncc(-c2ccc(-c3ccc(-c4cnc([C@@H]5CCCN5C(=O)[C@@H](c5ccccc5)N5CCOCC5)[nH]4)cc3)cc2)[nH]1` [Example 105, 4-((1R)-2-oxo-1-phenyl-2-((2S)-2-(5-(4′-(2-((2S)-1-((2S)-tetrahydro-2-furanylcarbonyl)-2-pyrrolidinyl)-1H-imidazol-5-yl)-4-biphenylyl)-1H-imidazol-2-yl)-1-pyrrolidinyl)ethyl)morpholine], the 50% effective concentration (EC50) – broadly, the concentration that produces a half-maximal response – (Hepatitis C virus) lay within 0.001 to 0.999 nM.
As to `CCN(CC)[C@@H](C(=O)N1CCC[C@H]1c1ncc(-c2ccc(-c3ccc(-c4cnc([C@@H]5CCCN5C(=O)[C@@H]5CCCO5)[nH]4)cc3)cc2)[nH]1)c1ccccc1` [Example 106, (1R)-N,N-diethyl-2-oxo-1-phenyl-2-((2S)-2-(5-(4′-(2-((2S)-1-((2S)-tetrahydro-2-furanylcarbonyl)-2-pyrrolidinyl)-1H-imidazol-5-yl)-4-biphenylyI)-1H-imidazol-2-yl)-1-pyrrolidinyl)ethanamine], the EC50 was 0.001 to 0.999 nM.
In the case of `CCN(C)[C@@H](C(=O)N1CCC[C@H]1c1ncc(-c2ccc(-c3ccc(-c4cnc([C@@H]5CCCN5C(=O)[C@@H]5CCCO5)[nH]4)cc3)cc2)[nH]1)c1ccccc1` [Example 107, (1R)-N-ethyl-N-methyl-2-oxo-1-phenyl-2-((2S)-2-(5-(4′-(2-((2S)-1-((2S)-tetrahydro-2-furanylcarbonyl)-2-pyrrolidinyl)-1H-imidazol-5-yl)-4-biphenylyl)-1H-imidazol-2-yl)-1-pyrrolidinyl)ethanamine], under “Hepatitis C virus”, the EC50 was in the range of 0.001 to 0.999 nM.
On to `CC1(O)CCN([C@@H](C(=O)N2CCC[C@H]2c2ncc(-c3ccc(-c4ccc(-c5cnc([C@@H]6CCCN6C(=O)[C@@H](c6ccccc6)N6CCCCC6)[nH]5)cc4)cc3)[nH]2)c2ccccc2)CC1` [Example 107-2, 4-methyl-1-((1R)-2-oxo-1-phenyl-2-((2S)-2-(5-(4′-(2-((2S)-1-((2R)-2-phenyl-2-(1-piperidinyl)acetyl)-2-pyrrolidinyl)-1H-imidazol-5-yl)-4-biphenylyl)-1H-imidazol-2-yl)-1-pyrrolidinyl)ethyl)-4-piperidinol], for which the EC50 (Hepatitis C virus) fell in the range of 0.001 to 0.999 nM.
On to `O=C(c1ccccc1F)N1CCC[C@H]1c1ncc(-c2ccc(-c3ccc(-c4cnc([C@@H]5CCCN5C(=O)[C@@H](c5ccccc5)N5CCCCC5)[nH]4)cc3)cc2)[nH]1` [Example 107-3, 1-((1R)-2-((2S)-2-(5-(4′-(2-((2S)-1-(2-fluorobenzoyl)-2-pyrrolidinyl)-1H-imidazol-5-yl)-4-biphenylyl)-1H-imidazol-2-yl)-1-pyrrolidinyl)-2-oxo-1-phenylethyl) piperidine], for which the EC50 (Hepatitis C virus) lay within 0.001 to 0.999 nM.
Still for that read-out and setting: for `CN(C)c1ccc(C(=O)N2CCC[C@H]2c2ncc(-c3ccc(-c4ccc(-c5cnc([C@@H]6CCCN6C(=O)[C@@H](c6ccccc6)N6CCCCC6)[nH]5)cc4)cc3)[nH]2)cc1` [Example 107-4, N,N-dimethyl-4-(((2S)-2-(5-(4′-(2-((2S)-1-((2R)-2-phenyl-2-(1-piperidinyl)acetyl)-2-pyrrolidinyl)-1H-imidazol-5-yl)-4-biphenylyl)-1H-imidazol-2-yl)-1-pyrrolidinyl)carbonyl)aniline] the value was 0.001 to 0.999 nM.
For `CC(=O)CCC(=O)N1CCC[C@H]1c1ncc(-c2ccc(-c3ccc(-c4cnc([C@@H]5CCCN5C(=O)[C@@H](c5ccccc5)N5CCCCC5)[nH]4)cc3)cc2)[nH]1` [Example 107-5, 5-oxo-5-((2S)-2-(5-(4′-(2-((2S)-1-((2R)-2-phenyl-2-(1-piperidinyl)acetyl)-2-pyrrolidinyl)-1H-imidazol-5-yl)-4-biphenylyl)-1H-imidazol-2-yl)-1-pyrrolidinyl)-2-pentanone], the EC50 (Hepatitis C virus) lay within 0.001 to 0.999 nM.
Same read-out and setting: for `O=C(C(c1ccccc1)c1ccccc1)N1CCC[C@H]1c1ncc(-c2ccc(-c3ccc(-c4cnc([C@@H]5CCCN5C(=O)[C@@H](c5ccccc5)N5CCCCC5)[nH]4)cc3)cc2)[nH]1` [Example 107-6, 1-((1R)-2-((2S)-2-(5-(4′-(2-((2S)-1-(diphenylacetyl)-2-pyrrolidinyl)-1H-imidazol-5-yl)-4-biphenylyl)-1H-imidazol-2-yl)-1-pyrrolidinyl)-2-oxo-1-phenylethyl) piperidine] the value was 0.001 to 0.999 nM.
